Data published in patent publication US8895738B2, “Mesoionic pyrido [1, 2-A] pyrimidine pesticides” (E I du Pont de Nemours and Company, priority 2010, dated 2014).
Where a name gives a salt, the structure may show the parent alone.

How the values were obtained:
Type in all cases: in vivo
[1] = system: corn planthopper (Peregrinus maidis); assay: Test D: control of corn planthopper on maize plant, contact and/or systemic; conditions: 144 h, assessed after 6 days, read-out: control efficacy: mortality
Experimental: For evaluating control of corn planthopper (Peregrinus maidis) through contact and/or systemic means, the test unit consisted of a small open container with a 3-4-day-old maize plant (spike) inside. White sand was added to the top of the soil prior to application. Test compounds were formulated and sprayed at 250, 50, 10 and/or 2 ppm, and replicated three times as described for Test A. After spraying, the test units were allowed to dry for 1 h before they were post-infested with ˜15-20 nymphs (18 to 21 day old) by sprinkling them onto the sand with a salt shaker. A black, screened cap was placed on the top of each test unit, and the test units were held for 6 days in a growth chamber at 22-24° C. and 50-70% relative humidity. Each test unit was then visually assessed for insect mortality.

[2] = system: Rice plants (indica cultivar ‘IR 64’); assay: Test L: vigor and harvest yield of rice crop outdoors, Dhamtari; conditions: for harvest yield: controls 2630 kg/ha
Experimental: To evaluate the effect of application of a compound of the invention on the vigor of rice crops grown under outdoor conditions, Tests 1 through 0 were conducted. “a.i.” refers to the amount of active ingredient applied.
Rice plants (indica cultivar ‘IR 64’) were transplanted into flooded 6 m×5 m test plots of clay loam soil in the Dhamtari district, State of Chhattisgarh, India, in the early spring season, and grown using local agronomic practices. After 79 days, in the hot season before monsoon arrival, aqueous mixtures containing 30 g a.i./ha of indoxacarb in form of STEWARD® Insecticide, 20 g a.i./ha of chlorantraniliprole, and 6.25, 12.5, 25 or 50 g a.i./ha of Compound 3 were applied to the foliage of the rice plants at in a spray volume of 500 L/ha using a backpack sprayer. Plots of control rice plants were sprayed with an aqueous mixture containing 30 g a.i./ha of indoxacarb in form of STEWARD® Insecticide and 20 g a.i./ha of chlorantraniliprole (i.e. no Compound 3). Each treatment and control was replicated three times, and the plots were arranged in a randomized complete block design. At the time of application of Compound 3, the pest level of rice brown planthopper (Nilaparvata lugens) was high, i.e. above the level considered economically significant.
Even though the pest level was high, at the time of treatment the plants had already reached full height and produced panicles, so the treatment with Compound 3 was too late to noticeably increase crop vigor rated by general external appearance (e.g., plant height, number of panicles). Nevertheless, the treatments substantially benefited crop vigor as measured by harvest yield. Harvest yields from the crops treated with 6.25, 12.5, 25 and 50 g a.i./ha of Compound 3 were 4630, 4830, 4730 and 4930 kg/ha, respectively, compared to 2630 kg/ha from the untreated controls.

[3] = system: maize plants (Prairie Hybrid 2431 organic field corn); assay: Test P: vigor (height) of maize plants in greenhouse in absence of pest pressure, surface drench
Experimental: In this test, the effect of a compound of the invention on the vigor of maize plants grown in a greenhouse in absence of pest pressure was measured.
Single maize seeds (Prairie Hybrid 2431 organic field corn) were planted 2.0 to 2.5 cm deep in 10 cm×10 cm×8 cm plastic pots containing either Redi-Earth sphagnum peat moss-based potting media (Sun Gro Horticulture Canada Ltd., Vancouver, British Columbia) or a 50/50 mixture of Matapeake soil and sand. Seeded pots were initially watered to a 5 cm depth and placed in a growth chamber maintained at 25° C. within a 16 h light/8 h dark photoperiod. The pots were watered whenever the soil surface dried.
After 8 days from initial watering, the potted plants were treated by applying as a surface drench 40 mL of an aqueous treatment mixture containing either 0.2 or 2.5 mg of Compound 3. To the pots of untreated control plants, 40 mL of tap water was similarly applied. Treatments and untreated controls were replicated 10 times.
Treated and untreated plants were then arranged in a complete randomized block design in a greenhouse maintained at 25.6-27.8° C. during the day and 23.0-25.0° C. at night. Supplemental lighting was added when outside light levels dropped below 200 watts m^−2 during a 16-h growing period, except that no supplemental lighting was activated when outside light energy had already accumulated to more than 5000 w h m^−2 during the growing period. Greenhouse shading closed when outside light levels rose above 600 watts m^−2 for more than 20 minutes.
No modifications to relative humidity were made. Tap water irrigation was provided twice daily as needed to maintain soil moisture. Every second or third day the plants were fertilized with irrigation water containing 100 ppm N—P—K from Peters® soluble 20-20-20 general purpose fertilizer (The Scotts Company, Marysville, Ohio, U.S.A.). The applied nutrient levels were considered less that ideal for optimal growth of maize plants.
Plant height was determined at 0, 7, 14, 21 and 28 days after treatment by measuring the length from the vertically extended longest leaf tip to the soil surface. The heights averaged across the 10 replicates are listed in Test Tables 1 and 2 for plants grown in Redi-Earth soil and Matapeake Soil/Sand, respectively.

[4] = system: potato leafhopper (Empoasca fabae); assay: Test E: control of potato leafhopper on Soleil bean plant, contact and/or systemic; conditions: 144 h, assessed after 6 days, read-out: control efficacy: mortality
Experimental: For evaluating control of potato leafhopper (Empoasca fabae) through contact and/or systemic means, the test unit consisted of a small open container with a 5-6-day-old Soleil bean plant (primary leaves emerged) inside. White sand was added to the top of the soil and one of the primary leaves was excised prior to application.
Test compounds were formulated and sprayed at 250, 50, 10 and/or 2 ppm, and the tests were replicated three times as described for Test A. After spraying, the test units were allowed to dry for 1 h before they were post-infested with 5 potato leafhoppers (18-21-day-old adults). A black, screened cap was placed on the top of each test unit, and the test units were held for 6 days in a growth chamber at 24° C. and 70% relative humidity. Each test unit was then visually assessed for insect mortality.

[5] = Matapeake Soil/Sand, 0.2 mg a.i./pot
[6] = Matapeake Soil/Sand, 2.5 mg a.i./pot
[7] = Redi-Earth Soil, 0.2 mg a.i./pot
[8] = Redi-Earth Soil, 2.5 mg a.i./pot

O=c1c(-c2cccc(C(F)(F)F)c2)c([O-])[n+](Cc2cncnc2)c2ccccn12 [Compound 3, 2-hydroxy-4-oxo-1-(5-pyrimidinylmethyl)-3-[3-(trifluoromethyl)phenyl]-4H-pyrido[1,2-a]pyrimidinium inner salt]
mortality at 2 ppm ([1]; sprayed at 2 ppm): ≥ 80% | mortality at 10 ppm ([1]; sprayed at 10 ppm): ≥ 80% | mortality at 50 ppm ([1]; sprayed at 50 ppm): ≥ 80% | mortality at 250 ppm ([1]; sprayed at 250 ppm): ≥ 80% | harvest yield ([2]; 6.25 g a.i./ha with 30 g a.i./ha indoxacarb and 20 g a.i./ha chlorantraniliprole): 4630 kg/ha | harvest yield ([2]; 12.5 g a.i./ha with 30 g a.i./ha indoxacarb and 20 g a.i./ha chlorantraniliprole): 4830 kg/ha | harvest yield ([2]; 25 g a.i./ha with 30 g a.i./ha indoxacarb and 20 g a.i./ha chlorantraniliprole): 4730 kg/ha | harvest yield ([2]; 50 g a.i./ha with 30 g a.i./ha indoxacarb and 20 g a.i./ha chlorantraniliprole): 4930 kg/ha | crop vigor (visual rating, 0 to 200% scale, control = 100%) ([2]; all application rates (6.25, 12.5, 25 or 50 g a.i./ha) with 30 g a.i./ha indoxacarb and 20 g a.i./ha chlorantraniliprole, 21 days after application, Nilaparvata lugens level high): 100% | Height (cm) at Days after Treatment 0 days [3, 5]: 22 cm | Height (cm) at Days after Treatment 7 days [3, 5]: 49 cm | Height (cm) at Days after Treatment 14 days [3, 5]: 66 cm | Height (cm) at Days after Treatment 21 days [3, 5]: 76 cm | Height (cm) at Days after Treatment 28 days [3, 5]: 87 cm | Height (cm) at Days after Treatment 0 days [3, 6]: 22 cm | Height (cm) at Days after Treatment 7 days [3, 6]: 46 cm | Height (cm) at Days after Treatment 14 days [3, 6]: 65 cm | Height (cm) at Days after Treatment 21 days [3, 6]: 78 cm | Height (cm) at Days after Treatment 28 days [3, 6]: 88 cm | Height (cm) at Days after Treatment 0 days [3, 7]: 22 cm | Height (cm) at Days after Treatment 7 days [3, 7]: 53 cm | Height (cm) at Days after Treatment 14 days [3, 7]: 85 cm | Height (cm) at Days after Treatment 21 days [3, 7]: 111 cm | Height (cm) at Days after Treatment 28 days [3, 7]: 131 cm | Height (cm) at Days after Treatment 0 days [3, 8]: 21 cm | Height (cm) at Days after Treatment 7 days [3, 8]: 53 cm | Height (cm) at Days after Treatment 14 days [3, 8]: 85 cm | Height (cm) at Days after Treatment 21 days [3, 8]: 111 cm | Height (cm) at Days after Treatment 28 days [3, 8]: 137 cm | growth enhancing effect on maize plants ([3]; pest-free environment, nutrient constrained, both soils, 0.2 or 2.5 mg per pot): little growth enhancing effect was noticeable | mortality at 10 ppm ([4]; sprayed at 10 ppm): ≥ 80% | mortality at 50 ppm ([4]; sprayed at 50 ppm): ≥ 80% | mortality at 250 ppm ([4]; sprayed at 250 ppm): ≥ 80%
